Results as given in patent US11629146B2, “Substituted [1,2,4]triazolo[4,3-a]pyrazines as modulators of sodium channel activity” (Praxis Precision Medicines, Inc., priority 2016, dated 2023).
Read-outs that look alike come from different tables or passages of the source.

Experiments:
[1] = PK rat clearance experiment; type: in vivo; settings: male Sprague-Dawley rats, single intravenous bolus 0.5 mg/kg, plasma
Procedure: The IV dosing solution was prepared freshly on the dosing day. Test article (0.5 mg/kg) was prepared in a vehicle, for example, consisting of 5% DMSO/5% solutol/90% water. The concentrations of test article in all dosing solutions were determined by HPLC/UV. Three male Sprague-Dawley rats were used in this study. The animals were confirmed healthy before being assigned to the study. Each animal was given a unique identification number which was marked on the tail or the ear, and written on the cage card. All animals were fasted overnight before dosing and the food was returned at 4 hours post dosing. Water was provided to all animals ad libitum during the fasting period. Animals were weighed prior to dose administration on the day of dosing for calculating the actual dose volume. The body weights were in the range from 212 g to 223 g for males. All animals received test article by single intravenous bolus administration at 0.5 mg/kg. Approximately 0.2 mL blood was collected at each time point via jugular vein from each study animal. […] All blood samples were transferred into pre-labeled plastic micro centrifuge tubes and mixed with the pre-loaded anti-coagulant K2EDTA (5 μL, 0.5 M). Plasma samples were then prepared by centrifuging the blood samples. All plasma samples were then quickly frozen over dry ice and kept at −60° C. or lower until LC/MS/MS analysis. The concentrations of test article in plasma were determined by using a quantitative bioanalytical LC/MS/MS method. The lower limit of quantitation (LLOQ) for test article in plasma was 1 ng/mL, and the upper limit of quantitation (ULOQ) in plasma was 3000 ng/mL. The plasma concentration of test article in rats was subjected to a non compartmental pharmacokinetic analysis by using the Phoenix WinNonlin software (version 6.3, Pharsight, Mountain View, Calif.). The linear/log trapezoidal rule was applied in obtaining the PK parameters.

human NaV1.6 (hNaV1.6) = human NaV1.6 (hNaV1.6) (Homo sapiens (Human), UniProt Q9UQD0); assay: INaL inhibition at hNaV1.6, PatchXpress electrophysiology; type: cell-based
human NaV1.6 (hNaV1.6), sequence (Q9UQD0 whole entry): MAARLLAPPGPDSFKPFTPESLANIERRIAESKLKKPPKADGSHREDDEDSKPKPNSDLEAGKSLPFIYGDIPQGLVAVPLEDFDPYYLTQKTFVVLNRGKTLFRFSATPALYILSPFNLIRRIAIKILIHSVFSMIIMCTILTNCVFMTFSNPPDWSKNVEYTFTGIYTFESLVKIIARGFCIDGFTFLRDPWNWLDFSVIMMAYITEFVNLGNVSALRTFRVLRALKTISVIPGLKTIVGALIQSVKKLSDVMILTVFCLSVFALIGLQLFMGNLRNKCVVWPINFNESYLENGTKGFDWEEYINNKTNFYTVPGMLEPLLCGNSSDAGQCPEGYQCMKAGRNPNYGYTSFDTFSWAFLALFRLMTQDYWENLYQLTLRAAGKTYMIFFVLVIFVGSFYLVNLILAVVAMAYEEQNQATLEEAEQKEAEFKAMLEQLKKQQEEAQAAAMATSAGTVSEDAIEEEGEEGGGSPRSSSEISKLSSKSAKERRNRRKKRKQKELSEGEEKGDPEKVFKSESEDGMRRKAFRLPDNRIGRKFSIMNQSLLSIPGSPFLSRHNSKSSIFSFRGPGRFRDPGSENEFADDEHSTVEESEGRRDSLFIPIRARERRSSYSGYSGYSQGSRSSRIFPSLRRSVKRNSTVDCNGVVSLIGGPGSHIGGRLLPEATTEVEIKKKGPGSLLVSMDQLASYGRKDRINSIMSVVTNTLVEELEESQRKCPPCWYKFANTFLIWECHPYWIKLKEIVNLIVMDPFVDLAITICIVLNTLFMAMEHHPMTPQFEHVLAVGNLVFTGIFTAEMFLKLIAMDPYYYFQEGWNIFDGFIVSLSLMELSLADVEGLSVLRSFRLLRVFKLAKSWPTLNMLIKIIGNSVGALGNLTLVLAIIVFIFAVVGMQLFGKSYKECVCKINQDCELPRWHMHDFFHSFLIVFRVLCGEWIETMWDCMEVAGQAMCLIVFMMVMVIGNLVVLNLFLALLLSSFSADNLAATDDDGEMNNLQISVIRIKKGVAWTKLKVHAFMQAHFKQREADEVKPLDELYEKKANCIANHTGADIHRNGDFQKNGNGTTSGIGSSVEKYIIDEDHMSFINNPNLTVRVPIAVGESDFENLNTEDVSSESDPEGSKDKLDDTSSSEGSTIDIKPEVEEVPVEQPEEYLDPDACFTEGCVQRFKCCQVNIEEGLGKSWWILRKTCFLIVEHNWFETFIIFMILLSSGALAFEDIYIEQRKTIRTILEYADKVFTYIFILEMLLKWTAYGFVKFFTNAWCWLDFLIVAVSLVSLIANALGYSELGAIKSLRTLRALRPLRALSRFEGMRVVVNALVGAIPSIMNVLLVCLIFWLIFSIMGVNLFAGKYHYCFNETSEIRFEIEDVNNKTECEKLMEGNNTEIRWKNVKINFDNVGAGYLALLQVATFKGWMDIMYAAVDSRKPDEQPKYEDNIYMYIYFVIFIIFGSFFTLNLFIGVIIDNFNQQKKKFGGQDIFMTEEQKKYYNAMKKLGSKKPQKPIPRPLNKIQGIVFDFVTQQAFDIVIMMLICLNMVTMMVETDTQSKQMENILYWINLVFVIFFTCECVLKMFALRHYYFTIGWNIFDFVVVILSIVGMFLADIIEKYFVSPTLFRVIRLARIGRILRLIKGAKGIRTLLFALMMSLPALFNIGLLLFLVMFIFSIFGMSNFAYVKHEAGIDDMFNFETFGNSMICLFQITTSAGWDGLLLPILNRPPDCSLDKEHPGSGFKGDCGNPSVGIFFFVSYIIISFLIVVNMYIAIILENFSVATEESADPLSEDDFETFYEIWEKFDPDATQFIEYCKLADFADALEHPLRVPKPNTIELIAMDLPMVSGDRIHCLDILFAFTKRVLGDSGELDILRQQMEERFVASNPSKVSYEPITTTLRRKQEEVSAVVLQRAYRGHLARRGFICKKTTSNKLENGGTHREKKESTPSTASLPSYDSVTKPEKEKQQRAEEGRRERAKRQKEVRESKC
Procedure: Functional characterization of exemplary compounds to modulate INaL expressed by the Nay 1.6 voltage-gated sodium channel was accomplished using the PatchXpress™ high throughput electrophysiology platform (Molecular Devices, Sunnyvale, Calif.). HEK-293 cells expressing recombinant, human NaV1.6 (hNaV1.6) were grown in DMEM/high-glucose Dulbecco's modified, 10% FBS, 2 mM sodium pyruvate, 10 mM HEPES and 400 μg/mL G418. Cells were grown to 50%-80% confluency prior to harvesting. […] The onboard liquid handling facility of the PatchXpress was used for dispensing cells and applying test compounds. Nay late currents were evoked by the application of 300 nM ATX-II. […] INaL amplitude and stability were determined by analyzing the mean current amplitude over the final 20 ms of the test pulse. […] Percent steady-state inhibition of INaL was calculated as: [(INaL_compound)/(INaL_control)]*100, where INaL_compound and INaL_control represent INaL recorded in the presence or absence of compound, respectively.

[2] = HEK293, 1 μM, HEK-293 cells expressing hNaV1.6, late current evoked by 300 nM ATX-II, read-out: INaL v1.6 (1 μM, % Inhibition)
[3] = HEK293, read-out: INaL v1.6 (1 μM, % Inhibition)
[4] = 1 μM, HEK-293 cells expressing hNaV1.6, late current evoked by 300 nM ATX-II

Row | Structure (SMILES) | inhibition at 1 µM (human NaV1.6 (hNaV1.6); [2]) [%] | also measured
1 | FC(F)(F)Oc1ccc(-c2ccc3nnc(C4(F)CC4)n3n2)cc1 [Compound 61] | > 70 | clearance [1]: 1.6 mL/min/kg; half-life [1]: 15.2 h
2 | FC(F)(F)Oc1ccc(-c2cn3c([C@@H]4CCOC4)nnc3cn2)cc1 [Compound 161, 3-[(3S)-tetrahydrofuran-3-yl]-6-[4-(trifluoromethoxy)phenyl]-[1,2,4]triazolo[4,3-a]pyrazine] | < 30 | 
3 | CC(Oc1ncc(-c2cn3c(C(F)(F)F)nnc3cn2)cc1F)C(F)(F)F (stereo not drawn) [Compound 133] | > 70 | 
4 | OCc1cc(-c2ccc(OC(F)(F)F)cc2)nn2c(C(F)(F)F)nnc12 [Compound 186] | < 30 | 
5 | Cc1nnc2cnc(-c3ccc(OC(F)(F)F)cc3)cn12 [Compound 95] |  | inhibition at 1 µM (human NaV1.6 (hNaV1.6); [3]): < 30%
6 | Cc1ccc(OC(F)(F)F)cc1-c1ccc2nnc(C(F)(F)F)n2n1 [Compound 36] | < 30 | 
7 | N#CC1(c2ccc(-c3cn4c(C(F)(F)F)nnc4cn3)cc2)CCC1 [Compound 71] | 30 to 70 | 
8 | COCc1ccc(-c2cn3c(C(F)F)nnc3cn2)cc1 [Compound 170] | < 30 | 
9 | COC(F)(F)c1nnc2ccc(-c3ccc(C(F)(F)F)cc3C)nn12 [Compound 111] | > 70 | 
10 | FC1(F)CC(c2nnc3cnc(-c4ccc(OC(F)(F)F)cc4)cn23)C1 [Compound 82] | 30 to 70 | 
11 | N#Cc1ccc(OC(F)(F)F)cc1-c1ccc2nnc(C(F)(F)F)n2n1 [Compound 40] | < 30 | 
12 | N#Cc1cc(C(F)(F)F)ccc1-c1ccc2nnc(C(F)(F)F)n2n1 [Compound 4] | < 30 | 
13 | FC(F)c1nnc2cnc(-c3ccc([C@@H]4CC4(F)F)cc3)cn12 [Compound 167, 6-[4-[(1S)-2,2-difluorocyclopropyl]phenyl]-3-(difluoromethyl)-[1,2,4]triazolo[4,3-a]pyrazine] | 30 to 70 | 
14 | CC(C)(C#N)c1ccc(-c2cn3c(C(F)F)nnc3cn2)cc1 [Compound 57] |  | inhibition at 1 µM (human NaV1.6 (hNaV1.6); [3]): < 30%
15 | COc1cc(C(F)(F)F)ccc1-c1ccc2nnc(C(F)(F)F)n2n1 [Compound 89] | > 70 | 
16 | Nc1cc2nnc(C(F)(F)F)n2nc1-c1ccc(OC(F)(F)F)cc1 [Compound 190, 6-[4-(trifluoromethoxy)phenyl]-3-(trifluoromethyl)-[1,2,4]triazolo[4,3-b]pyridazin-7-amine] | < 30 | 
17 | FC(F)c1nnc2ccc(-c3ccc([C@H]4CC4(F)F)cc3)nn12 [Compound 164, 6-[4-[(1R)-2,2-difluorocyclopropyl]phenyl]-3-(difluoromethyl)-[1,2,4]triazolo[4,3-b]pyridazine] | 30 to 70 | 
18 | FC(F)(F)c1nnc2ccc(-c3ccc(C4CC4(F)F)cc3)nn12 (stereo not drawn) [Compound 120, 6-[4-(2,2-difluorocyclopropyl)phenyl]-3-(trifluoromethyl)-[1,2,4]triazolo[4,3-b]pyridazine] |  | inhibition at 1 µM (human NaV1.6 (hNaV1.6); [3]): > 70%
19 | Cc1cc(OC2CC(F)(F)C2)ccc1-c1ccc2nnc(C(F)(F)F)n2n1 [Compound 94] | 30 to 70 | 
20 | FC(F)(F)Oc1ccc(-c2ccc3nnc(CC4CCCOC4)n3n2)cc1 (stereo not drawn) [Compound 38] |  | inhibition at 1 µM (human NaV1.6 (hNaV1.6); [3]): 30 to 70%
21 | FC(F)(F)Oc1ccc(Cl)c(-c2ccc3nnc(C(F)(F)F)n3n2)c1 [Compound 35] | < 30 | 

Row | Structure (SMILES) | inhibition at 1 µM (human NaV1.6 (hNaV1.6); [2]) [%] | also measured
22 | Cc1cc(-c2ccc(OC(F)(F)F)cc2)nn2c(C(F)(F)F)nnc12 [Compound 139, 8-methyl-6-[4-(trifluoromethoxy)phenyl]-3-(trifluoromethyl)-[1,2,4]triazolo[4,3-b]pyridazine] | < 30 | 
23 | C[C@@H](Oc1ccc(-c2ccc3nnc(C(F)(F)F)n3n2)cn1)C(F)(F)F [Compound 199, 3-(trifluoromethyl)-6-[6-[(1R)-2,2,2-trifluoro-1-methyl-ethoxy]-3-pyridyl]-[1,2,4]triazolo[4,3-b]pyridazine] | > 70 | 
24 | COCc1cc(-c2ccc(OC(F)(F)F)cc2)nn2c(C(F)(F)F)nnc12 [Compound 163] | < 30 | 
25 | CC(Oc1ncc(-c2ccc3nnc(C(F)(F)F)n3n2)cc1F)C(F)(F)F (stereo not drawn) [Compound 128] | > 70 | 
26 | Cc1cc(OC2CC(F)(F)C2)ccc1-c1cn2c(C(F)(F)F)nnc2cn1 [Compound 174] | 30 to 70 | 
27 | COCc1cc(-c2ccc3nnc(C(F)F)n3n2)ccc1OC(F)(F)F [Compound 146] | 30 to 70 | 
28 | COCc1cc(OC(F)(F)F)ccc1-c1cn2c(C(F)F)nnc2cn1 [Compound 142] | > 70 | 
29 | COCc1cc(-c2cn3c(C(F)F)nnc3cn2)ccc1OC(F)(F)F [Compound 144] | < 30 | 
30 | CC(=O)Nc1cc(-c2ccc(OC(F)(F)F)cc2)nn2c(C(F)(F)F)nnc12 [Compound 177] | < 30 | 
31 | FC(F)(F)Oc1ccc(-c2cn3c(C4CC4)nnc3cn2)cc1 [Compound 80] | 30 to 70 | 
32 | COc1cc(OC(F)(F)F)ccc1-c1cn2c(C(F)F)nnc2cn1 [Compound 48] | < 30 | 
33 | FC1(F)CC(Oc2ccc(-c3cn4c(C(F)(F)F)nnc4cn3)cn2)C1 [Compound 86] | 30 to 70 | 
34 | Fc1cc(-c2ccc3nnc(C(F)(F)F)n3n2)cnc1OC1CC(F)(F)C1 [Compound 93] | > 70 | 
35 | FC(F)(F)COc1ccc(-c2ccc3nnc(C(F)(F)F)n3n2)nc1 [Compound 58] | 30 to 70 | 
36 | Cc1cc2nnc(C(F)(F)F)n2nc1-c1ccc(OC(F)(F)F)cc1 [Compound 140, 7-methyl-6-[4-(trifluoromethoxy)phenyl]-3-(trifluoromethyl)-[1,2,4]triazolo[4,3-b]pyridazine] | 30 to 70 | 
37 | Fc1ccc(Oc2nnc3cnc(-c4cnc(OCC(F)(F)F)c(F)c4)cn23)cc1 [Compound 188] | 30 to 70 | 
38 | FC(F)(F)Oc1ccc(-c2ccc3nnc(CC4CCOCC4)n3n2)cc1 [Compound 39] |  | inhibition at 1 µM (human NaV1.6 (hNaV1.6); [3]): < 30%
39 | C[C@H](Oc1ccc(-c2ccc3nnc(C(F)(F)F)n3n2)cn1)C(F)(F)F [Compound 200, 3-(trifluoromethyl)-6-[6-[(1S)-2,2,2-trifluoro-1-methyl-ethoxy]-3-pyridyl]-[1,2,4]triazolo[4,3-b]pyridazine] | > 70 | 
40 | Fc1cc(-c2ccc3nnc(C4CC4)n3n2)cnc1OCC(F)(F)F [Compound 103] | 30 to 70 | 
41 | Cc1nc(-c2ccc(OC(F)(F)F)cc2)cn2c(C(F)(F)F)nnc12 [Compound 168, 8-methyl-6-[4-(trifluoromethoxy)phenyl]-3-(trifluoromethyl)-[1.2.4]triazolo[4,3-a]pyrazine] | 30 to 70 | 
42 | COCc1cc(OC(F)(F)F)ccc1-c1cn2c(C(F)(F)F)nnc2cn1 [Compound 66] |  | INaL v1.6 (1 μM, % Inhibition) (human NaV1.6 (hNaV1.6); [4]): C (inhibition of greater than 70%)

Row | Structure (SMILES) | inhibition at 1 µM (human NaV1.6 (hNaV1.6); [2]) [%] | also measured
43 | COc1cc(OC(F)(F)F)ccc1-c1ccc2nnc(C(F)(F)OC)n2n1 [Compound 33] | > 70 | 
44 | CCOc1ccc(-c2cn3c(C(F)(F)F)nnc3cn2)cc1 [Compound 74] | < 30 | 
45 | COc1cc(OC(F)(F)F)ccc1-c1ccc2nnc(C(F)(F)F)n2n1 [Compound 5] | > 70 | 
46 | Fc1cc(C(F)(F)F)ccc1-c1cn2c(C(F)(F)F)nnc2cn1 [Compound 76] | 30 to 70 | 
47 | COCc1cc(-c2cn3c(C(F)(F)F)nnc3cn2)ccc1C(F)(F)F [Compound 157] | 30 to 70 | 
48 | FC(F)(F)OCc1ccc(-c2cn3c(C(F)(F)F)nnc3cn2)cc1 [Compound 149] | > 70 | 
49 | NC(=O)c1cc(-c2ccc(OC(F)(F)F)cc2)nn2c(C(F)(F)F)nnc12 [Compound 183] | < 30 | 
50 | FC(F)(F)Oc1ccc(-c2cnc3nncn3c2)cc1 [Compound 55] | < 30 | 
51 | FC(F)(F)OCc1ccc(-c2ccc3nnc(C(F)(F)F)n3n2)cc1 [Compound 118] | > 70 | 
52 | N#CC1(c2ccc(-c3cn4c(C(F)(F)F)nnc4cn3)cc2)CC1 [Compound 67] | < 30 | 
53 | FC(F)Oc1ccc(-c2ccc3nnc(C(F)(F)F)n3n2)cc1 [Compound 116] | > 70 | 
54 | FC(F)c1nnc2cnc(-c3ccc(COC(F)(F)F)cc3)cn12 [Compound 197] | 30 to 70 | 
55 | Fc1cc(-c2cn3c(C(F)(F)F)nnc3cn2)ccc1OC(F)(F)F [Compound 79] | > 70 | 
56 | OCc1ccc(-c2cn3c(C(F)F)nnc3cn2)cc1 [Compound 172, [4-[3-(difluoromethyl)-[1,2,4]triazolo[4,3-a]pyrazin-6-yl]phenyl]methanol] | < 30 | 
57 | OCc1ccc(-c2cn3c(C(F)(F)F)nnc3cn2)cc1 [Compound 196, [4-[3-(trifluoromethyl)-[1,2,4]triazolo[4,3-a]pyrazin-6-yl]phenyl]methanol] | < 30 | 
58 | Fc1cc(-c2cn3c(C(F)(F)F)nnc3cn2)cnc1OC1CC(F)(F)C1 [Compound 84] |  | INaL v1.6 (1 μM, % Inhibition) (human NaV1.6 (hNaV1.6); [4]): C (inhibition of greater than 70%)
59 | Fc1ccc(-c2nnc3cnc(-c4cnc(OCC(F)(F)F)c(F)c4)cn23)cc1 [Compound 175] | > 70 | 
60 | COCc1cc2nnc(C(F)(F)F)n2nc1-c1ccc(OC(F)(F)F)cc1 [Compound 143] | < 30 | 
61 | FC(F)(F)Oc1ccc(-c2ccc3nnc(C(F)(F)F)n3n2)c(C2COC2)c1 [Compound 32] | 30 to 70 | 
